Test results as given in patent US10710993B2, “Benzofuran pyrazole amine kinase inhibitor” (Hangzhou REX Pharmaceutical Co., LTD., priority 2016, dated 2020).

Legend:
Wild-Type ALK = target: T1, Wild-Type ALK (Homo sapiens, UniProt Q9UM73); test: Z'-LYTE (FRET) ALK kinase inhibitory activity; format: biochemical
T1 construct: purchased Life Technology
Procedure: (§1) The kinase activity assay was determined by using kinase assay panel (Life Technology) and the result was in table 1.

ALK L1196M = target: T2, ALK L1196M (Homo sapiens, UniProt Q9UM73, L1196M); test: LanthaScreen Eu Kinase Binding Assay (TR-FRET) on ALK mutant
T2 construct: purchased Life Technology
T2 sequence (Q9UM73 19-1620 L1196M): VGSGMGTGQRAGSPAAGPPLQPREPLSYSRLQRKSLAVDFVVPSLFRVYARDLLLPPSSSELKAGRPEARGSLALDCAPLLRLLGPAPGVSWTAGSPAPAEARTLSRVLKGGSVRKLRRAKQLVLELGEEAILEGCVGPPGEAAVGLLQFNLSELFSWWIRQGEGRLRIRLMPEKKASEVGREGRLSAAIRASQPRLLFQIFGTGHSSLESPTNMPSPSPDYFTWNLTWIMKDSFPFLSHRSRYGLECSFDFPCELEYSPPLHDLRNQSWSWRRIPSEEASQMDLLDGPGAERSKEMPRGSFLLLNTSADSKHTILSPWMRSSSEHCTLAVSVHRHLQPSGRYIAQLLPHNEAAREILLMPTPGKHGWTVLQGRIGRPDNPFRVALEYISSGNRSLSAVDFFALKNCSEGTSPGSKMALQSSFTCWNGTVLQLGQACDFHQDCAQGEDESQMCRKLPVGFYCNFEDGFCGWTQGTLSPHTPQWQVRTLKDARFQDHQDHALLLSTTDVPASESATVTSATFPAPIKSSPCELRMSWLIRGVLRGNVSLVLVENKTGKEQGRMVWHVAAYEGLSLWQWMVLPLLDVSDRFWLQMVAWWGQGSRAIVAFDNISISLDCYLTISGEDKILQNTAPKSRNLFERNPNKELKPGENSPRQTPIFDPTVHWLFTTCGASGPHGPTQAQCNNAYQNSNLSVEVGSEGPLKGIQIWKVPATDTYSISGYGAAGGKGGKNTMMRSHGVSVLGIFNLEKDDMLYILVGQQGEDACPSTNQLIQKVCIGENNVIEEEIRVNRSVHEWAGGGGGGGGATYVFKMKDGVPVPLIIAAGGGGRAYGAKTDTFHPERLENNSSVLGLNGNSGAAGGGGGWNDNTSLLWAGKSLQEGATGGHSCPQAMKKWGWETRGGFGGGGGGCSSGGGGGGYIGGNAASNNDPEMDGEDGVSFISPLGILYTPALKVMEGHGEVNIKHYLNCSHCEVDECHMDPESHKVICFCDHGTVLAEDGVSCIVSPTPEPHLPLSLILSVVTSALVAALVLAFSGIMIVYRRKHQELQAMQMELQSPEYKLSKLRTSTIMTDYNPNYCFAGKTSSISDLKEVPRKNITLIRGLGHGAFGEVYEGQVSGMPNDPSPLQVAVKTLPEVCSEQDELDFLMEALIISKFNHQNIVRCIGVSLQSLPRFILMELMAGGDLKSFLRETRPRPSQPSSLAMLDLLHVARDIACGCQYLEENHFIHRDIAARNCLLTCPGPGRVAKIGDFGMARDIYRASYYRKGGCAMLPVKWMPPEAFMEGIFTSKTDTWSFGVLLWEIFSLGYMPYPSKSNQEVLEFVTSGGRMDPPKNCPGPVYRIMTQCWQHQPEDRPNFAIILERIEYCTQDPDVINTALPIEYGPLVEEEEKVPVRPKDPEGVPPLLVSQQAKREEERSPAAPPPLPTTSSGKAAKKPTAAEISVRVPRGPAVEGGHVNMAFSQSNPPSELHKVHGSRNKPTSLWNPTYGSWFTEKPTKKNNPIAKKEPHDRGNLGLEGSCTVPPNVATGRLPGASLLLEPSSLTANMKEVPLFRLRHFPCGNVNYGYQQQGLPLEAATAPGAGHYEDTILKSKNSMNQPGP
From the text: Meanwhile, The LanthaScreen® Eu Kinase Binging Assay (TR-FRET) method was used for determining ALK Mutants (such as ALK L1196M) inhibitory activity IC50. LanthaScreen Eu kinase binding experiment detected Alexa Fluor conjugate or kinase “tracer” binding by adding Eu labeled antibodies or anti-label antibodies. The combination of tracer and antibody with kinase leads to a high level of FRET, whereas the use of kinase inhibitors in place of tracer may cause FRET loss.
as §1

TEL-ALK-F1174L-BaF3 = target: T3, TEL-ALK-F1174L-BaF3 (Homo sapiens, UniProt Q9UM73, F1174L, cells depend on it); test: Cell proliferation experiment (Cell-Titer GLO), TEL-ALK-F1174L-BaF3; format: cell-based; conditions: 72 h, read-out: IC50 TEL-ALK F1174L-BaF3
T3 construct: fused on or other part: TEL (ETV6) N-terminal oligomerising part fused before the ALK intracellular/kinase part; P41212 (Transcription factor ETV6)
T3 sequence (Q9UM73 whole entry F1174L, the tested form may be a part): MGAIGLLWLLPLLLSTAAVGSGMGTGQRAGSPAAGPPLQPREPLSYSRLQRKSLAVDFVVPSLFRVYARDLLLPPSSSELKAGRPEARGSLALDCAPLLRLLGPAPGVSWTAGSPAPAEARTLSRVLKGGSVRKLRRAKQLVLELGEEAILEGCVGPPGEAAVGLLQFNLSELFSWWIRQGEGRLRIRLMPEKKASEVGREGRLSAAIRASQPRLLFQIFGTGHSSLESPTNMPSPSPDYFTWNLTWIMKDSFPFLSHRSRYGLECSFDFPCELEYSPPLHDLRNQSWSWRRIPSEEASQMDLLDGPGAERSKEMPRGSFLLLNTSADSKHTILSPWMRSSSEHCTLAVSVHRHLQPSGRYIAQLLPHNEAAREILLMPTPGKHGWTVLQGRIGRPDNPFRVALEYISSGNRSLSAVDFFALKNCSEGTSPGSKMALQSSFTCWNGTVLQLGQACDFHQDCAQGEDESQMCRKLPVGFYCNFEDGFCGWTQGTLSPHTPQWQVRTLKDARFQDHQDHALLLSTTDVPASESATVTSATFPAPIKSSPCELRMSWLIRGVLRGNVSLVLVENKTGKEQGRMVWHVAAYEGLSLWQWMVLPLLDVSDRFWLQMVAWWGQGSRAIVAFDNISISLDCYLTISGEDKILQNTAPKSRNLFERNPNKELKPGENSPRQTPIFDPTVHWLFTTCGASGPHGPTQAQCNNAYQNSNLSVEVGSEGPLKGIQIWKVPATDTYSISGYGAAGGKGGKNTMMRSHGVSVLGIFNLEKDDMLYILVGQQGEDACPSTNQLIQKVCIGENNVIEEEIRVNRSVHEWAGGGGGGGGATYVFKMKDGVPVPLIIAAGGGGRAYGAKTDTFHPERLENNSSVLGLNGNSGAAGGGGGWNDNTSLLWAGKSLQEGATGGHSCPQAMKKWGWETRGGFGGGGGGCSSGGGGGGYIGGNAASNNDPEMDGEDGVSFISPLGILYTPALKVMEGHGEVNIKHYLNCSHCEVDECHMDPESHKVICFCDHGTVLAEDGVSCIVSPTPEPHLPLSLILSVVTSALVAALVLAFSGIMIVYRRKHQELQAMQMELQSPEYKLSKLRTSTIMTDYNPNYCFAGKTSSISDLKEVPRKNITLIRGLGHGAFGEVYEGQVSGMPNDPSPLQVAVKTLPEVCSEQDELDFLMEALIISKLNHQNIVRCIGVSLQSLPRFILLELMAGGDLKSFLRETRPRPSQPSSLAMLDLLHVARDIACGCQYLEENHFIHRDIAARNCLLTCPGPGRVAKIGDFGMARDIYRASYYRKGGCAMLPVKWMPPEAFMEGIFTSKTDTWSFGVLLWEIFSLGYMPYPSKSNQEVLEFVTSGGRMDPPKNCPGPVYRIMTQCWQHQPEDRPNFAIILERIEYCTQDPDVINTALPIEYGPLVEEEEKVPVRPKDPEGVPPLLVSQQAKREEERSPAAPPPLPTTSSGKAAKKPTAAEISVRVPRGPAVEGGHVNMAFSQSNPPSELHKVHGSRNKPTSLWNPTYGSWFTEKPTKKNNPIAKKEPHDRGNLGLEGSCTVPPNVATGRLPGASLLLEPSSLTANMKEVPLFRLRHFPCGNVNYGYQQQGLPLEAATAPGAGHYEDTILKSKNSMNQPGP
Procedure: (§2) Compounds to be tested: Positive compound Ceritinib and the compounds obtained by the examples of the present invention.
(§3) Cell lines: Karpas-299 and NCI-H3122 which were purchased from the Nanjing kebai biotechnology Co. LTD; TEL-ALK-F1174L-BaF3, TEL-ALK-G1202R-BaF3, TEL-ALK-C1156Y-BaF3 and TEL-ALK-L1196M-BaF3 which were purchased from Hefei zhongkopruisheng biological medicine technology Co. LTD.
(§4) Method: Cells were seeded in 96-well plates for 24 h in growth media containing 10% fetalbovine serum (FBS) and cultured overnight at 37° C. The following day, serial dilutions of compounds or appropriate control were added to the designated wells, and cells were incubated at 37° C. for 72 h. A Cell Titer Glo assay (Promega) was then performed to determine the relative cell numbers. IC50 values were calculated by concentration-response curve fitting using a four-parameter analytical method with Graphpad 6.0. Drug inhibition rate (%)=100%−[OD(Compound)−OD(blank)]/[OD(vehicle)−OD(blank)]×100% Equation: […]

TEL-ALK-G1202R-BaF3 = target: T4, TEL-ALK-G1202R-BaF3 (Homo sapiens, UniProt Q9UM73, G1202R, cells depend on it); test: Cell proliferation experiment (Cell-Titer GLO), TEL-ALK-G1202R-BaF3; format: cell-based; conditions: 72 h, read-out: IC50 TEL-ALK G1202R-BaF3
T4 construct: fused on or other part: TEL (ETV6) N-terminal oligomerising part fused before the ALK intracellular/kinase part; P41212 (Transcription factor ETV6)
T4 sequence (Q9UM73 whole entry G1202R, the tested form may be a part): as the sequence (Q9UM73 whole entry F1174L, the tested form may be a part) above, with L1174F, G1202R counted along it
Procedure: as §2, §3, §4

TEL-ALK-C1156Y-BaF3 = target: T5, TEL-ALK-C1156Y-BaF3 (Homo sapiens, UniProt Q9UM73, C1156Y, cells depend on it); test: Cell proliferation experiment (Cell-Titer GLO), TEL-ALK-C1156Y-BaF3; format: cell-based; conditions: 72 h, read-out: IC50 TEL-ALK C1156Y-BaF3
T5 construct: fused on or other part: TEL (ETV6) N-terminal oligomerising part fused before the ALK intracellular/kinase part; P41212 (Transcription factor ETV6)
T5 sequence (Q9UM73 whole entry C1156Y, the tested form may be a part): as the sequence (Q9UM73 whole entry F1174L, the tested form may be a part) above, with C1156Y, L1174F counted along it
Procedure: as §2, §3, §4

TEL-ALK-L1196M-BaF3 = target: T6, TEL-ALK-L1196M-BaF3 (Homo sapiens, UniProt Q9UM73, L1196M, cells depend on it); test: Cell proliferation experiment (Cell-Titer GLO), TEL-ALK-L1196M-BaF3; format: cell-based; conditions: 72 h, read-out: IC50 TEL-ALK L1196M-BaF3
T6 construct: fused on or other part: TEL (ETV6) N-terminal oligomerising part fused before the ALK intracellular/kinase part; P41212 (Transcription factor ETV6)
T6 sequence (Q9UM73 whole entry L1196M, the tested form may be a part): as the sequence (Q9UM73 whole entry F1174L, the tested form may be a part) above, with L1174F, L1196M counted along it
Procedure: as §3
Method: Cells were seeded in 96-well plates for 24 h in growth media containing 10% fetalbovine serum (FBS) and cultured overnight at 37° C. The following day, serial dilutions of compounds or appropriate control were added to the designated wells, and cells were incubated at 37° C. for 72 h. A Cell Titer Glo assay (Promega) was then performed to determine the relative cell numbers. IC50 values were calculated by concentration-response curve fitting using a four-parameter analytical method with Graphpad 6.0.

NCI-H3122 = test: Cell proliferation experiment (Cell-Titer GLO), NCI-H3122; format: cell-based; conditions: Homo sapiens, 72 h
Procedure: as §2, §3, §4

Karpas-299 = test: Cell proliferation experiment (Cell-Titer GLO), Karpas-299; format: cell-based; conditions: Homo sapiens, 72 h
Procedure: as §2, §3, §4

[1] = system: zebrafish iridophore pigment cells; test: Phenotypic screening of zebrafish: effect on iridophore pigment cells; format: in vivo, Zebrafish (Danio rerio); conditions: for IOD: added at 6 hpf, images at 3 dpf
From the text: Zebrafish (Danio rerio) is emerging as a predictive vertebrate animal model for in vivo assessment of drug efficacy, toxicity and safety. An important advantage of the zebrafish animal model is that the morphological and molecular basis of tissues and organs is either identical or similar to other vertebrates, including humans. The sequence and presumed function of many genes that are important for vertebrates are conserved in the zebrafish and the homology is as high as 85%. It has been shown that loss-of-function alleles for leukocyte tyrosine kinase (Ltk), the sister kinase to ALK, lack iridophores in zebrafish (Lopes, S. S., Yang, X., et al. (2008). Leukocyte tyrosine kinase functions in pigment cell development. PLoS Genet, 4.). Iridophores are neural crest-derived pigment cells that are clearly visible as shiny silver cells in the developing zebrafish embryo which distribute in the head, eyes, the lateral spine. ALK and LTK are sister kinase.
Therefore, using this principle, we investigated the effect of the compounds on normal zebrafish iridophore pigment cells to explore the compound's anti-ALK activity in vivo.
Method: Fish eggs of 6 hpf (hours post impurity) were randomly divided into groups. Then, subjects with different concentrations were added and the images were collected at 3 dpf (days post impurity). Then, the IOD (integrated option density) values of zebrafish dorsal iridophore pigment cells from the release pore to the caudal position were analyzed using ImageJ software. The Graphpad prism6.0 was used to conduct statistical analysis on Dunnett's t-test, and p<0.05 indicates statistical difference. The calculation formula of iridophore pigment inhibition rate is as follows: Inhibition rate (%)=[1−IOD(Compound)/IOD(vehicle)]×100%

NCI-H2228 tumor cells = test: Subcutaneous NCI-H2228 lung cancer xenograft model; format: in vivo, BALB/C nude mice
Procedure: BALB/C nude mice were inoculated at the right flank with NCI-H2228 tumor cells to establish the human Lung cancer xenograft model. […] The drug was administered for 14 days and then discontinued for two weeks. The therapeutic effect was evaluated by calculating the relative tumor proliferation rate T/C (%), and the tolerability of treatment was evaluated by the body weight changes and death.
Tumor volume (TV) were measured twice per week in two dimensions using a caliper, and the volume were expressed in mm^3 using the formula: V=0.5 a×b^2 where a and b are the long and short diameters of the tumor, respectively.
Relative tumor volume RTV=Vt/V0, Vt=tumor volume of the drug-treated group on a given day of the study, V0=tumor volume of the drug-treated group on the initial day of dosing.
The T/C value (%) is an indicator of tumor response to treatment, and one of commonly used anti-tumor activity endpoint; T/C %=TRTV/CRTV×100% Relative Tumor Growth Inhibition; % TGI=(1−T/C)×100%;

T1 sequence (Q9UM73 19-1620): as the sequence (Q9UM73 19-1620 L1196M) above, with M1178L counted along it

Row | IC50 (Wild-Type ALK) [nM] | IC50 (ALK L1196M) [nM] | GI50 (TEL-ALK-F1174L-BaF3) [nM] | GI50 (TEL-ALK-G1202R-BaF3) [nM] | GI50 (TEL-ALK-C1156Y-BaF3) [nM] | GI50 (TEL-ALK-L1196M-BaF3) [nM] | IC50 (NCI-H3122) [nM] | IC50 (Karpas-299) [nM] | Structure (SMILES) | other results
1 | 13.3 | 0.695 | < 10 | < 50 | 10.4 | 10.5 | 10.6 | < 10 | Cc1cc(Nc2ncc(Cl)c(Nc3cn(C)nc3S(=O)(=O)C(C)C)n2)c2c(c1C1CCN(C)CC1)C[C@@H](C)O2 [REX-D2, (R)-5-chloro-N^2-(2,5-dimethyl-4-(1-methylpiperidin-4-yl)-2,3-dihydrobenzofuran-7-yl)-N^4-(3-(isopropylsulfonyl)-1-methyl-1H-pyrazol-4-yl)pyrimidine-2,4-diamine] | IOD ([1]; 5 μM): 420.9 ± 34.1; IOD ([1]; 10 μM): 173.8 ± 20.5; IOD ([1]; 15 μM): 64.6 ± 16.1; IOD ([1]; 20 μM): 24.8 ± 5.8; inhibition at 5 µM ([1]; Danio rerio, 5 μM, iridophore pigment, 3 dpf, read-out: Inhibition rate %): 38%; inhibition at 10 µM ([1]; Danio rerio, 10 μM, iridophore pigment, 3 dpf, read-out: Inhibition rate %): 75%; inhibition at 15 µM ([1]; Danio rerio, 15 μM, iridophore pigment, 3 dpf, read-out: Inhibition rate %): 91%; inhibition at 20 µM ([1]; Danio rerio, 20 μM, iridophore pigment, 3 dpf, read-out: Inhibition rate %): 96%; inhibition of the formation of iridophore pigment cells ([1]; different doses of concentration): significant inhibition; TGI (NCI-H2228 tumor cells; 30 mg/kg PO QD 14 days, at 14 days after administration): 96.1%; tumor volume (NCI-H2228 tumor cells; 30 mg/kg PO QD 14 days, at 14 days after administration (first day after administration end)): 13 mm^3; TGI (NCI-H2228 tumor cells; 30 mg/kg PO QD 14 days, end of the experiment (15 days after the administration)): 98.8%; anti-tumor effect (NCI-H2228 tumor cells; 30 mg/kg, once a day, continuously for 14 days): significant anti-tumor effect
2 | 15.9 | 1.25 | < 10 | < 140 | 10.5 | 10.4 | 10.8 | < 20 | Cc1cc(Nc2ncc(C(F)(F)F)c(Nc3cn(C)nc3S(=O)(=O)C(C)C)n2)c2c(c1C1CCNCC1)C[C@@H](C)O2 [REX-D3, (R)—N^2-(2,5-dimethyl-4-(piperidin-4-yl)-2,3-dihydrobenzofuran-7-yl)-N^4-(3-(isopropylsulfonyl)-1-methyl-1H-pyrazol-4-yl)-5-(trifluoromethyl)pyrimidine-2,4-diamine] | –
3 | 5.9 | 0.565 | < 10 | < 50 | 10.5 | 10.5 | 10.6 | < 10 | Cc1cc(Nc2ncc(C(F)(F)F)c(Nc3cn(C)nc3S(=O)(=O)C(C)C)n2)c2c(c1C1CCN(C)CC1)C[C@@H](C)O2 [REX-D4, (R)—N^2-(2,5-dimethyl-4-(1-methylpiperidin-4-yl)-2,3-dihydrobenzofuran-7-yl)-N^4-(3-(isopropylsulfonyl)-1-methyl-1H-pyrazol-4-yl)-5-(trifluoromethyl)pyrimidine-2,4-diamine] | –
